Test results as given in patent US12441708B2, “Cereblon ligands and bifunctional compounds comprising the same” (Arvinas Operations, Inc., priority 2017, dated 2025).
Where two headings read alike, the source gives them in different places.

Experiments:
[1] = target: estrogen receptor-alpha (ERα) (Homo sapiens (Human), UniProt P03372); experiment: Estrogen receptor-alpha (ERα) degradation assay in MCF7 cells (In-Cell Western / western blot); format: cell-based; settings: % degraded, read-out: ER Degradation Dmax
Chain of estrogen receptor-alpha (ERα) (P03372 whole entry): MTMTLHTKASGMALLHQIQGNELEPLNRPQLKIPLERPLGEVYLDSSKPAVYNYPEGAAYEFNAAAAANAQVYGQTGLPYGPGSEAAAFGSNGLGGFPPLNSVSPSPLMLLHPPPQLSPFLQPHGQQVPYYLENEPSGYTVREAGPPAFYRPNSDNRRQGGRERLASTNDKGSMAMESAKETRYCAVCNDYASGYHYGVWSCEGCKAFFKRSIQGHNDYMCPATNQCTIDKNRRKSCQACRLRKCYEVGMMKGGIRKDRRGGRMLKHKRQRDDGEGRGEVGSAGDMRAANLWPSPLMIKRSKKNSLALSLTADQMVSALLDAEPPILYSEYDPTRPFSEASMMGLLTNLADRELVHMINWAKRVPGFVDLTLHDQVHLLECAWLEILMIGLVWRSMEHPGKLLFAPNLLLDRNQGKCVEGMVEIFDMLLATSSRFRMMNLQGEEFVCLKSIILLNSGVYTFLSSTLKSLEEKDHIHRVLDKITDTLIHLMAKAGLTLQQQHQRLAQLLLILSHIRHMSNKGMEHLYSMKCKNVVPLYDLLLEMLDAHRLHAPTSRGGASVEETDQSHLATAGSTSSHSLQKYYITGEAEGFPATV
Method: 2. Estrogen Receptor-Alpha (ERα) Degradation Assay in MCF-7 Cells Using Western Blot Method for Table 5
The exemplary novel ERα degraders were assessed for their activity in degrading ERα in MCF-7 cells via western blot. The assay was carried out in the presence of 10% FBS or high percentage of human or mouse serum. Protocols of the western blot assay are described below.
MCF7 cells were grown in DMEM/F12 with 10% FBS and seeded at 24,000 cells per well in 100 μl into 96-well clear tissue culture plates. The following day, the cells were treated with PROTACs in a […] concentration curve with 100 nM being the top concentration and serial dilutions to make the other concentrations (30 nM, 10 nM. 3 nM, 1 nM, and 0.3 nM). At all concentrations, 0.01% DMSO is the final concentration in the well. The following day, the plates are aspirated, washed with 50 μl of cold PBS. The cells are lysed with 50 μl/well 4° C. Cell Lysis Buffer (Catalog #9803; Cell Signaling Technology, Danvers, MA) (20 mM Tris-HCL (pH 7.5), 150 mM NaCl, 1 mM Na2EDTA, 1 mM EGTA, 1% Triton, 2.5 mM sodium pyrophosphate, 1 mM B-glycerophosphate, 1 mM sodium vanadate, 1 μg/ml leupeptin). Lysates were clarified at 16,000× g for 10 minutes, and 2 μg of protein was subjected to SDS-PAGE analysis and followed by immunoblotting according to standard protocols. The antibodies used were ERα (Cell Signaling, Technologies Catalog #8644), and Tubulin (Sigma Catalog #T9026; St. Louis, MO). Detection reagents were Clarity Western ECL substrate (Bio-Rad Catalog 4170-5060; Hercules, CA).
Alternatively, MCF7 cells were grown in DMEM/F12 with 10% FBS and seeded at 24,000 cells per well in 500 μl in 24-well clear tissue culture plates. The following day, the cells were treated with PROTACs in a 5-point concentration curve (100 nM, 33 nM, 11 nM, 3.7 nM, and 1.2 nM) in the presence of 0.01% DMSO. After 72 hours, the wells are aspirated and washed with 500 μl of PBS. The cells are lysed with 100 μl/well 4° C. Cell Lysis Buffer (Catalog #9803; Cell Signaling Technology, Danvers, MA) (20 mM Tris-HCL (pH 7.5), 150 mM NaCl, 1 mM Na2EDTA, 1 mM EGTA, 1% Triton, 2.5 mM sodium pyrophosphate, 1 mM B-glycerophosphate, 1 mM sodium vanadate, 1 ug/ml leupeptin). Lysates were clarified at 16,000× g for 10 minutes, and 2 μg of protein was subjected to SDS-PAGE analysis and followed by immunoblotting according to standard protocols. The antibodies used were ERα (Cell Signaling Technologies Catalog #8644), and Tubulin (Sigma Catalog #T9026; St. Louis, MO). Detection reagents were Clarity Western ECL substrate (Bio-Rad Catalog 4170-5060; Hercules, CA).
3. Estrogen receptor-alpha (ERα) degradation assay using In-Cell Western™ Assay for Table 5
Degradation of ERα by claimed compounds were determined in MCF7 cells using an In-Cell Western™ assay. Briefly, MCF7 cells were plated in 96-well plates (2000 cells per well in 100 μl media) and incubated at 37° C. under an atmosphere of 5% CO2 in a humidified incubator overnight. One-hundred (100) μl of media containing test compound (at 2× concentration) was added to the appropriate wells to provide 11 serially decreasing concentrations (top final concentration, 1 μM then 3-fold less for the next 10 concentrations); a vehicle control (DMSO) was also added for each compound. For each experiment, all compounds were assayed in duplicate plates. Cells were then incubated for 3 or 5 days in the above-mentioned environment. The assay was terminated by removal of media, a single wash with ice-cold PBS and the addition of […] paraformaldehyde (PFA: 4% in PBS). After 15 minutes in PFA at room temperature, the cells were permeabilized in Tris-phosphate-buffered saline with Tween (0.1%) (TBST) supplemented with Triton X-100 (0.5%) for 15 minutes. Cells were then blocked in BSA (TBST with BSA, 3%) for one hour. […] The cells were incubated overnight at 4° C. […]

estrogen receptor = experiment: ERE luciferase assay in T47D-KBluc cells; format: cell-based; settings: Homo sapiens, 24 hours, read-out: ER Target Engagement IC50
Method: 1. ERE Luciferase Assay for Compounds in Table 2
T47D-1(Bluc cells (ATCC® ECRL 2 65, T47D human breast cancer cells stably transfected with estrogen responsive element/promoter/luciferase reporter gene) were seeded into 96-well white opaque plates in IR: PM growth medium supplemented with 10% fetal bovine serum (FBS) and allowed to adhere overnight in a 37° C. humidified incubator. The following day, cells were treated with PROTACs in a 12-point concentration curve (top final concentration of 300 nM with subsequent concentrations being 3-fold less with […] being the lowest concentration in the assay). Each PROTAC was tested independently in two experiments on 96-well plates. After 24 hours, media was removed and lysis buffer was added to the wells. Following lysis, Bright-Glo™ Luciferase Assay Substrate (Promega, Madison WI) was added and the luciferase activity was measured using a Cytation 3 plate reader (BioTek™, Winooski, VT). Each compound was assayed in duplicate and the activity was calculated as […] using GraphPad Prism software (San Diego, CA).

Row | Compound | Dmax ([1]; 3 day incubation) | IC50 (estrogen receptor) | Dmax ([1]; 5 day incubation)
1 | O=C1CCC(n2ncc(Oc3ccc(O[C@@H]4CCN(CCOc5ccc([C@H]6c7ccc(O)cc7CC[C@H]6c6ccc(F)cc6)cc5)C4)nc3)cc2=O)C(=O)N1 (mixture of isomers) [PROTAC-97, rac-3-(4-((6-(((R)-1-(2-(4-((1S,2R)-2-(4-fluorophenyl)-6-hydroxy-1,2,3,4-tetrahydronaphthalen-1-yl)phenoxy)ethyl)pyrrolidin-3-yl)oxy)pyridin-3-yl)oxy)-6-oxopyridazin-1(6H)-yl)piperidine-2,6-dione] | ≤ 50% | 10 to 100 nM | –
2 | O=C1CCC(n2cc(-c3ccc(N4CCN(CCCOc5ccc([C@@H]6c7ccc(O)cc7CC[C@@H]6c6ccccc6)cc5)CC4)nc3)cn2)C(=O)N1 (mixture of isomers) [PROTAC-111, rac-3-(4-(6-(4-(3-(4-((1R,2S)-6-hydroxy-2-phenyl-1,2,3,4-tetrahydronaphthalen-1-yl)phenoxy)propyl)piperazin-1-yl)pyridin-3-yl)-1H-pyrazol-1-yl) piperidine-2,6-dione] | – | < 1 nM | ≤ 50%
3 | O=C1CCC(NC(=O)c2ccc(N3CCN(CCCCCOc4ccc([C@@H]5c6ccc(O)cc6CC[C@@H]5c5ccccc5)cc4)CC3)cn2)C(=O)N1 (mixture of isomers) [PROTAC-91, rac-N-(2,6-dioxopiperidin-3-yl)-5-(4-(5-(4-((1R,2S)-6-hydroxy-2-phenyl-1,2,3,4-tetrahydronaphthalen-1-yl)phenoxy)pentyl)piperazin-1-yl)picolinamide] | – | 1 to 10 nM | > 75%
4 | O=C1CCC(n2ncc(Oc3ccc(O[C@H]4CCN(CCOc5ccc([C@H]6c7ccc(O)cc7CC[C@H]6c6ccc(F)cc6)cc5)C4)nc3)cc2=O)C(=O)N1 (mixture of isomers) [PROTAC-93, rac-3-(4-((6-(((R)-1-(2-(4-((1R,2S)-2-(4-fluorophenyl)-6-hydroxy-1,2,3,4-tetrahydronaphthalen-1-yl)phenoxy)ethyl)pyrrolidin-3-yl)oxy)pyridin-3-yl)oxy)-6-oxopyridazin-1(6H)-yl)piperidine-2,6-dione] | ≤ 50% | 10 to 100 nM | –
5 | O=C1CCC(n2ncc(Oc3ccc(CCCCCOc4ccc([C@@H]5c6ccc(O)cc6CC[C@@H]5c5ccc(F)cc5)cc4)nc3)cc2=O)C(=O)N1 (mixture of isomers) [PROTAC-99, rac-3-(4-((6-(5-(4-((1R,2S)-2-(4-fluorophenyl)-6-hydroxy-1,2,3,4-tetrahydro-naphthalen-1-yl)phenoxy)pentyl)pyridin-3-yl)oxy)-6-oxopyridazin-1(6H)-yl)piperidine-2,6-dione] | – | 10 to 100 nM | ≤ 50%
6 | Cc1nc2c(OCCN3CCN(CCOc4ccc(Oc5c(-c6ccc(Br)cc6)sc6cc(O)ccc56)cc4)CC3)cccc2c(=O)n1C1CCC(=O)NC1=O (centres unmarked) [PROTAC-108, 3-(8-(2-(4-(2-(4-((2-(4-bromophenyl)-6-hydroxybenzo[b]thiophen-3-yl)oxy)phenoxy)ethyl)piperazin-1-yl)ethoxy)-2-methyl-4-oxoquinazolin-3(4H)-yl)piperidine-2,6-dione] | ≤ 50% | 1 to 10 nM | –
7 | O=C1CCC(n2ncc(Oc3ccc(CCCCOc4ccc([C@@H]5c6ccc(O)cc6CC[C@@H]5c5ccc(F)cc5)cc4)nc3)cc2=O)C(=O)N1 (mixture of isomers) [PROTAC-98, rac-3-(4-((6-(4-(4-((1R,2S)-2-(4-fluorophenyl)-6-hydroxy-1,2,3,4-tetrahydro-naphthalen-1-yl)phenoxy)butyl)pyridin-3-yl)oxy)-6-oxopyridazin-1(6H)-yl)piperidine-2,6-dione] | – | 1 to 10 nM | ≤ 50%
8 | O=C1CCC(n2ncc(Oc3ccc(N4CCN(CCOc5ccc([C@@H]6c7ccc(O)cc7CC[C@@H]6c6ccc(F)cc6)cc5)CC4)nc3)cc2=O)C(=O)N1 (mixture of isomers) [PROTAC-96, rac-3-(4-((6-(4-(2-(4-((1R,2S)-2-(4-fluoro-phenyl)-6-hydroxy-1,2,3,4-tetrahydro-naphthalen-1-yl)phenoxy)ethyl)piperazin-1-yl)pyridin-3-yl)oxy)-6-oxopyridazin-1(6H)-yl)piperidine-2,6-dione] | ≤ 50% | < 1 nM | –
9 | O=C1CCC(n2ncc(Oc3ccc(N4CCN(CCOc5ccc([C@H]6c7ccc(O)cc7CC[C@H]6c6ccc(F)cc6)cc5)CC4)nc3)cc2=O)C(=O)N1 (mixture of isomers) [PROTAC-95, rac-3-(4-((6-(4-(2-(4-((1R,2S)-2-(4-fluorophenyl)-6-hydroxy-1,2,3,4-tetrahydronaphthalen-1-yl)phenoxy)ethyl)piperazin-1-yl)pyridin-3-yl)oxy)-6-oxopyridazin-1(6H)-yl)piperidine-2,6-dione] | ≤ 50% | ≥ 100 nM | –
10 | O=C1CCC(n2cc(-c3ccc(N4CCN(CCCOc5ccc([C@@H]6c7ccc(O)cc7CC[C@@H]6c6ccccc6)cc5)CC4)cc3)cn2)C(=O)N1 (mixture of isomers) [PROTAC-110, rac-3-(4-(4-(4-(3-(4-((1R,2S)-6-hydroxy-2-phenyl-1,2,3,4-tetrahydronaphthalen-1-yl)phenoxy)propyl)piperazin-1-yl)phenyl)-1H-pyrazol-1-yl) piperidine-2,6-dione] | – | < 1 nM | 50 to 75%
11 | O=C1CCC(n2ncc(N3CCN(CC4CCN(c5ccc([C@@H]6c7ccc(O)cc7CC[C@@H]6c6ccccc6)cc5)CC4)CC3)cc2=O)C(=O)N1 (stereo partly drawn) [PROTAC-102, 3-[4-[4-[[1-[4-[(1R, 2 S)-6-hydroxy-2-phenyl-tetralin-1-yl]phenyl]-4-piperidyl]methyl]piperazin-1-yl]-6-oxo-pyridazin-1-yl]piperidine-2,6-dione] | – | 1 to 10 nM | > 75%
12 | O=C1CCC(n2ncc(N3CCN(CCCCCOc4ccc([C@@H]5c6ccc(O)cc6CC[C@@H]5c5ccccc5)cc4)CC3)cc2=O)C(=O)N1 (mixture of isomers) [PROTAC-100, rac-3-(4-(4-(5-(4-((1R,2S)-6-hydroxy-2-phenyl-1,2,3,4-tetrahydronaphthalen-1-yl)phenoxy)pentyl)piperazin-1-yl)-6-oxopyridazin-1(6H)-yl)piperidine-2,6-dione] | – | 1 to 10 nM | 50 to 75%
13 | O=C1CCC(n2cnc(N3CCN(CCCCCOc4ccc([C@@H]5c6ccc(O)cc6CC[C@@H]5c5ccccc5)cc4)CC3)cc2=O)C(=O)N1 (mixture of isomers) [PROTAC-101, rac-3-(4-(4-(5-(4-((1R,2S)-6-hydroxy-2-phenyl-1,2,3,4-tetrahydronaphthalen-1-yl)phenoxy)pentyl)piperazin-1-yl)-6-oxopyrimidin-1(6H)-yl)piperidine-2,6-dione] | – | 1 to 10 nM | 50 to 75%
